Some test systems named below: RPMI-8226 leukemia; HOP-62 NSCLC; MALME-3M melanoma; HCC-2998 colon; COLO 205 colon; MCF7 breast; TK-10 renal; U251 CNS; EKVX NSCLC; NCI-H460 lung.
What all share (experiment): NCI anticancer screen, dose series, 48 h

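Each compound was tested at five concentrations against cells in 96-well plates for 48 hours. At the GI50, growth is halved. TGI is the concentration that stops growth completely.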 Where only a bound is given, the exact number is not on record here.

The values below come from PubChem BioAssay (NCI).

With `Nc1cc2c3c(cccc3c1)C(=O)N(CCN1CCCC1)C2=O`, the GI50 in the experiment with RPMI-8226 leukemia was 1.23 µM; in the experiment with HOP-62 NSCLC it was 2.58 µM; with MALME-3M melanoma, 2.49 µM; in the experiment on HCC-2998 colon, 2.78 µM; in the experiment with COLO 205 colon, 1.68 µM; in the experiment with MCF7 breast, 1.18 µM. For the same molecule, the GI50 is 5.49 µM in the experiment with TK-10 renal, 3.4 µM in the experiment with U251 CNS, 3.69 µM with EKVX NSCLC and 0.666 µM with NCI-H460 lung. Moreover, the TGI with RPMI-8226 leukemia worked out at 11.9 µM; in the experiment with HOP-62 NSCLC, 25.5 µM; in the experiment on MALME-3M melanoma, 7.68 µM; with HCC-2998 colon, 15 µM; in the experiment with COLO 205 colon, 10.3 µM; in the experiment on MCF7 breast, 35.6 µM. The TGI in the experiment on TK-10 renal was 33.7 µM; in the experiment with U251 CNS it was over 100 µM; in the experiment with EKVX NSCLC, 54.2 µM; in the experiment on NCI-H460 lung, over 24.5 µM.
On to `CSc1nc(Nc2cccc(NC(=O)CCl)c2)c(C#N)c(-c2cccc([N+](=O)[O-])c2)n1`, for which the GI50 with RPMI-8226 leukemia is 2.1 µM; in the experiment on HOP-62 NSCLC, 2.55 µM; with MALME-3M melanoma, 0.191 µM; with HCC-2998 colon, 2.07 µM; in the experiment on COLO 205 colon it was 1.82 µM; in the experiment with MCF7 breast, 0.74 µM. For the same molecule, the GI50 in the experiment on TK-10 renal is 4.2 µM; with U251 CNS, 1.6 µM; in the experiment on EKVX NSCLC, 3.36 µM; with NCI-H460 lung, 4.12 µM. Besides, the TGI in the experiment on RPMI-8226 leukemia came to 5.6 µM; in the experiment on HOP-62 NSCLC, 11.4 µM; in the experiment with MALME-3M melanoma, 0.635 µM; in the experiment on HCC-2998 colon, 4.37 µM; in the experiment on COLO 205 colon, 3.54 µM; in the experiment on MCF7 breast, 2.44 µM. In addition, the TGI worked out at 10.9 µM with TK-10 renal, 3.13 µM with U251 CNS, 13.2 µM in the experiment on EKVX NSCLC and 23.2 µM with NCI-H460 lung.
Consider `Cc1ccc(/C(=N/Nc2ccc([N+](=O)[O-])cc2)Sc2cc(Cl)c(C)cc2S(N)(=O)=O)cc1`, for which the GI50 is 1.82 µM in the experiment with RPMI-8226 leukemia; 2.35 µM in the experiment with HOP-62 NSCLC; 1.91 µM with MALME-3M melanoma; 1.76 µM in the experiment with HCC-2998 colon; 2.98 µM with COLO 205 colon; 2.6 µM in the experiment on MCF7 breast. For the same molecule, the GI50 in the experiment with TK-10 renal is 1.61 µM; with U251 CNS it was 4.34 µM; in the experiment on EKVX NSCLC, 3.14 µM; with NCI-H460 lung, 2.55 µM. For the same molecule, the TGI in the experiment with RPMI-8226 leukemia was 4.27 µM; in the experiment with HOP-62 NSCLC it was 5.34 µM; in the experiment on MALME-3M melanoma it was 4.58 µM; with HCC-2998 colon, 3.66 µM; with COLO 205 colon, over 23.2 µM; in the experiment with MCF7 breast, over 21.5 µM. Moreover, the TGI with TK-10 renal was found to be 3.38 µM; in the experiment with U251 CNS it was 16.7 µM; in the experiment with EKVX NSCLC, 9.12 µM; in the experiment with NCI-H460 lung, 9.07 µM.
